Measured values taken from US12433846B2, “Drug delivery system for treatment of cancer” (SINTEF TTO AS, priority 2019, dated 2025).
Where “and” joins values, the source holds several entries; their conditions need not be identical. Equal values may be shown once.

What was measured:
[1] = test system: PMCA-1 (peritoneal metastases from colorectal cancer); assay: In vivo treatment effect in orthotopic PMCA-1 peritoneal carcinomatosis model; details: PMCA-1, 15 mg/kg
[2] = test system: PMCA-3 (pseudomyxoma peritonei); assay: In vivo treatment effect in orthotopic PMCA-3 peritoneal carcinomatosis model; details: PMCA-3, 15 mg/kg

## CO[C@H]1C(=O)[C@]2(C)[C@@H](OC)C[C@H]3OC[C@@]3(OC(C)=O)[C@H]2[C@H](OC(=O)c2ccccc2)[C@]2(O)C[C@H](OC(=O)[C@H](O)[C@@H](NC(=O)OC(C)(C)C)c3ccccc3)C(C)=C1C2(C)C [CBZ, cabazitaxel]
[1]; IP (FIG. 4)
  mice still alive at day 90 after the injection: 4 out of 6
[1]; IV (FIG. 4)
  mice still alive at day 90 after the injection: 3 out of 6
[1]; intraperitoneal (FIG. 1)
  tumor growth (growth index) compared to vehicle treatment: significantly inhibited tumor growth
[1]; intraperitoneal, day 100
  mice cured (sacrificed on day 100 with no detectable tumor): 3/6 and 3 out of 6
[2]; IP (FIG. 6)
  mice still alive at day 60 after the injection: none of the mice
[2]; IV (FIG. 6)
  mice alive at day 70 after the injection: none of the mice
[2]; intraperitoneal (FIG. 2)
  tumor growth (growth index) compared to vehicle treatment: significantly reduced tumor growth
[2]; intraperitoneal, day 100
  mice cured (sacrificed on day 100 with no detectable tumor): No animals were cured
